Patent US9862985B2, “Identification and susceptibility of microorganisms by species and strain” (SPECIFIC TECHNOLOGIES LLC, priority 2012, dated 2018)

Experiments:
[1] = test system: K. pneumoniae IS-007; assay: Colorimetric sensor array antibiotic susceptibility test on solid growth media; assay type: cell-based; settings: vs control without antibiotic
Description: (§1) To detect a microorganism by species and strain, a sample including the microorganism is placed in a container including culture medium and a colorimetric array, and the temporal response of the sensors to the metabolic products of the microorganism is monitored. Susceptibility can be assessed by inoculating a growth medium including a substance (e.g., an antibiotic) with a microorganism and monitoring the temporal response of the sensors while also monitoring the response of a control (e.g., no antibiotic).
FIG. 8 depicts container 800 configured for use to assess susceptibility of microorganisms. Container 800 includes base 802 and lid 804, with plates 806 positioned in base 802 opposite colorimetric sensor arrays 808 on lid 804. Microorganisms may be placed in contact with growth medium (e.g., a solid growth medium) in plates 806. A substance (e.g., a drug such as an antibiotic) may be added to the growth medium. In one example, rows and columns of plates 802 in container 800 may be used for different microorganisms, different substances (e.g., drugs effective to kill the microorganisms), or different concentrations of substances. After samples are loaded on plates 802, lid 804 is positioned over base 802, such that each colorimetric sensor array 808 is proximate a plate 806. Susceptibility is assessed via temporal response of the sensors in colorimetric sensor arrays. […]

[2] = test system: K. pneumoniae IS-020; settings: cited from earlier work
[3] = test system: K. pneumoniae IS-133; settings: cited from earlier work
[4] = test system: K. pneumoniae IS-007; settings: cited from earlier work
[5] = test system: S. aureus IS-123; settings: cited from earlier work
[6] = test system: S. aureus IS-120; settings: cited from earlier work
[7] = test system: S. aureus IS-120; assay: Colorimetric sensor array antibiotic susceptibility test on solid growth media; assay type: cell-based
Description: as §1
(§2) FIG. 8 depicts container 800 configured for use to assess susceptibility of microorganisms. Container 800 includes base 802 and lid 804, with plates 806 positioned in base 802 opposite colorimetric sensor arrays 808 on lid 804. Microorganisms may be placed in contact with growth medium (e.g., a solid growth medium) in plates 806. A substance (e.g., a drug such as an antibiotic) may be added to the growth medium. In one example, rows and columns of plates 802 in container 800 may be used for different microorganisms, different substances (e.g., drugs effective to kill the microorganisms), or different concentrations of substances. After samples are loaded on plates 802, lid 804 is positioned over base 802, such that each colorimetric sensor array 808 is proximate a plate 806. Susceptibility is assessed via temporal response of the sensors in colorimetric sensor arrays. Container 800 can be positioned in an apparatus (e.g., apparatus 700) for automated assessment of susceptibility.
(§3) Susceptibility is indicated by a lack of metabolic products compared to controls (no antibiotic).
(§4) In another susceptibility test, three strains of S. aureus were inoculated onto the solid growth media. […] S. aureus IS-124 was susceptible to both antibiotics in agreement with known susceptibility information that this strain is susceptible to Oxacillin and Vancomycin.

[8] = test system: S. aureus IS-123; assay: as above; assay type: cell-based
Description: as §1, §2, §3, §4

[9] = test system: S. aureus IS-124; settings: concentration not given; cited from earlier work
[10] = antibiotic at 1-2 ug/ml in solid growth media
[11] = antibiotic at 2 ug/ml in solid growth media

## C[C@@H](O)[C@H]1C(=O)N2C(C(=O)O)=C(S[C@@H]3CN[C@H](C(=O)N(C)C)C3)[C@H](C)[C@H]12 [Meropenem]
[1]; antibiotic at 1 ug/ml in solid growth media
  susceptibility or resistance of the strain to the antibiotic: susceptibility
[2]
  concentration at which the strain is susceptible (known susceptibility information): < 0.25 µg/mL
[3]
  concentration below which the strain is resistant (known): below 16 ug/ml

## CO/N=C(\C(=O)N[C@@H]1C(=O)N2C(C(=O)[O-])=C(C[N+]3(C)CCCC3)CS[C@H]12)c1csc(N)n1 [Cefepime]
[1]; antibiotic at 8 ug/ml in solid growth media
  susceptibility or resistance of the strain to the antibiotic: resistance
[4]
  concentration at which the strain is susceptible (known susceptibility information): < 0.25 µg/mL
  concentration below which the strain is resistant (known susceptibility information): below 64 ug/ml
[2]
  concentration at which the strain is susceptible (known susceptibility information): < 1 µg/mL
[3]
  concentration below which the strain is resistant (known): below 64 ug/ml

## CN[C@H](CC(C)C)C(=O)N[C@H]1C(=O)N[C@@H](CC(N)=O)C(=O)N[C@H]2C(=O)N[C@H]3C(=O)N[C@H](C(=O)N[C@H](C(=O)O)c4cc(O)cc(O)c4-c4cc3ccc4O)[C@H](O)c3ccc(c(Cl)c3)Oc3cc2cc(c3O[C@@H]2O[C@H](CO)[C@@H](O)[C@H](O)[C@H]2O[C@H]2C[C@](C)(N)[C@H](O)[C@H](C)O2)Oc2ccc(cc2Cl)[C@H]1O [Vancomycin]
[5]; concentration not given
  known susceptibility of the strain to the antibiotic: susceptible
[6]; concentration not given
  known susceptibility of the strain to the antibiotic: susceptible
[7]; [10]
  susceptibility or resistance of the strain to the antibiotic: susceptibility
[8]; [10]
  susceptibility or resistance of the strain to the antibiotic: susceptibility
[9]
  known susceptibility of the strain to the antibiotic: susceptible

## Cc1onc(-c2ccccc2)c1C(=O)N[C@@H]1C(=O)N2[C@@H]1SC(C)(C)[C@@H]2C(=O)O [Oxacillin]
[5]
  concentration below which the strain is resistant (known susceptibility information): below 4 ug/ml
[6]
  concentration below which the strain is resistant (known susceptibility information): below 4 ug/ml
[7]; [11]
  susceptibility or resistance of the strain to the antibiotic: resistance
[8]; [11]
  susceptibility or resistance of the strain to the antibiotic: resistance
[9]
  known susceptibility of the strain to the antibiotic: susceptible
